# Experimental data published in BindingDB's records for doi:10.1111/cbdd.12822 (Wuhan University of Technology, 2016).
# How the values were obtained:
# [1] = target: Acetylcholinesterase (Electrophorus electricus, UniProt O42275); test: AChE and BuChE Inhibition Assay; conditions: pH 8; 25 °C
# Experimental: (§1) This spectrophotometric assay is based on the reaction of 5,5-dithio-bis(2-nitrobenzoic)acid (DTNB) with thiocholine to yield a colored product. Shimadzu (Kyoto, Japan) UV-1700 UV-vis spectrophotometer was used to record the measurements. The enzyme solutions were prepared at 2.5 units/mL concentrationin 1% gelatin solution. BChE/AChE and compound solutions (50 μL each) in 2% DMSO at 10^-1-10^-6 mM concentration were added to 3 mL phosphate buffer (pH 8 &plusnm; 0.1)followed by incubation for 5 min at 25 °C. The reaction was commenced by the addition of acetylthiocholine iodide (ATC) (10 μL) and DTNB (50 μL) to the enzyme-inhibitor mixture. […] The blank reading contained 10 μL substrate, 50 μL DTNB, 50 μL (2%) DMSO, and 3 mL buffer. The reaction was performed in triplicate.
# [2] = target: Carboxylic ester hydrolase (Equus caballus, UniProt Q9N1N9); test: AChE and BuChE Inhibition Assay; conditions: pH 8; 25 °C
# Experimental: as §1
# [3] = target: T1, Amine oxidase [flavin-containing] A (Rattus norvegicus, UniProt P21396); test: Monoamine Oxidase Assay; conditions: pH 7.4; 38 °C
# T1 sequence (P21396 whole entry): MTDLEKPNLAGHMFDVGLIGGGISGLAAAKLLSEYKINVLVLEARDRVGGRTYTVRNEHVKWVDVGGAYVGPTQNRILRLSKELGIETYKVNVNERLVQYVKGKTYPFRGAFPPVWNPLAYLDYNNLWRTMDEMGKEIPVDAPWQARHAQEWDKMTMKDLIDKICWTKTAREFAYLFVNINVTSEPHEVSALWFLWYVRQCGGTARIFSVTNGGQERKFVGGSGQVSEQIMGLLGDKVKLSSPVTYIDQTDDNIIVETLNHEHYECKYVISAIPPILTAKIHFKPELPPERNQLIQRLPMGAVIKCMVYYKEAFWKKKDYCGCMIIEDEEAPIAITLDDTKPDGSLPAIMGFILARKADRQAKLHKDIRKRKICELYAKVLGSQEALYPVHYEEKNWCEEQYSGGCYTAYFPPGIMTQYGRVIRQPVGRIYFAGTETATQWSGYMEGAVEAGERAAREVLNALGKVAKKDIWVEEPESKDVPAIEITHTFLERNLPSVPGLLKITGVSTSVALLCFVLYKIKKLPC
# [4] = target: T2, Amine oxidase [flavin-containing] B (Rattus norvegicus, UniProt P19643); test: Monoamine Oxidase Assay; conditions: pH 7.4; 38 °C
# T2 sequence (P19643 whole entry): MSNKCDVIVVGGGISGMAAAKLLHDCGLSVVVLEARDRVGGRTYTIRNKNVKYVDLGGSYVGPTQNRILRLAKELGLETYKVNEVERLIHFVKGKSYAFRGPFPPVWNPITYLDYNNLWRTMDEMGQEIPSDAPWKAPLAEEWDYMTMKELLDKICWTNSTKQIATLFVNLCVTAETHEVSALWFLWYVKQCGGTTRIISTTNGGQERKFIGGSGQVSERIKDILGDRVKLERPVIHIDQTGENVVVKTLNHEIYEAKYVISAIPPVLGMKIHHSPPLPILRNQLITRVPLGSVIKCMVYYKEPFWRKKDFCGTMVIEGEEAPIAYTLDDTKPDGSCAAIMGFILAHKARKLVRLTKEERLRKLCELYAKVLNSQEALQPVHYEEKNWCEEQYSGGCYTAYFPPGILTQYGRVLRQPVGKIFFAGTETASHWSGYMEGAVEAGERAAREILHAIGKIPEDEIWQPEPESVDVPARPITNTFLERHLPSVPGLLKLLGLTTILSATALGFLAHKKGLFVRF
# Sequence of Acetylcholinesterase (O42275 whole entry): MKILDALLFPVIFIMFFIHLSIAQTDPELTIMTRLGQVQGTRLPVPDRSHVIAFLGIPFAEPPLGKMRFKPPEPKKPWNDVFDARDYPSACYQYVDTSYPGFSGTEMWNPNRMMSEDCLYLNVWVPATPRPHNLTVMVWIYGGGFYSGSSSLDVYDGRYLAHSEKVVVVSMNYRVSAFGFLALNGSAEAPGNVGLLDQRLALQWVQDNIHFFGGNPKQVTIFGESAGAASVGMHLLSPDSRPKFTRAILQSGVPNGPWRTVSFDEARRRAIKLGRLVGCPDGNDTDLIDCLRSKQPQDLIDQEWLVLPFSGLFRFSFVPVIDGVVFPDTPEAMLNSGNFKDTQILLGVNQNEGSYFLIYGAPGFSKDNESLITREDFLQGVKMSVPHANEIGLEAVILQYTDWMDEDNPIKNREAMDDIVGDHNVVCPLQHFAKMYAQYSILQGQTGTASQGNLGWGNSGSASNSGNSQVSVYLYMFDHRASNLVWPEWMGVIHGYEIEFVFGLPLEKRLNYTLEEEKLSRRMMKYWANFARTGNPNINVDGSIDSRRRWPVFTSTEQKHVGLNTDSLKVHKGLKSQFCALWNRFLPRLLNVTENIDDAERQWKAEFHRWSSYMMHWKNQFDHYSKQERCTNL
# Sequence of Carboxylic ester hydrolase (Q9N1N9 whole entry): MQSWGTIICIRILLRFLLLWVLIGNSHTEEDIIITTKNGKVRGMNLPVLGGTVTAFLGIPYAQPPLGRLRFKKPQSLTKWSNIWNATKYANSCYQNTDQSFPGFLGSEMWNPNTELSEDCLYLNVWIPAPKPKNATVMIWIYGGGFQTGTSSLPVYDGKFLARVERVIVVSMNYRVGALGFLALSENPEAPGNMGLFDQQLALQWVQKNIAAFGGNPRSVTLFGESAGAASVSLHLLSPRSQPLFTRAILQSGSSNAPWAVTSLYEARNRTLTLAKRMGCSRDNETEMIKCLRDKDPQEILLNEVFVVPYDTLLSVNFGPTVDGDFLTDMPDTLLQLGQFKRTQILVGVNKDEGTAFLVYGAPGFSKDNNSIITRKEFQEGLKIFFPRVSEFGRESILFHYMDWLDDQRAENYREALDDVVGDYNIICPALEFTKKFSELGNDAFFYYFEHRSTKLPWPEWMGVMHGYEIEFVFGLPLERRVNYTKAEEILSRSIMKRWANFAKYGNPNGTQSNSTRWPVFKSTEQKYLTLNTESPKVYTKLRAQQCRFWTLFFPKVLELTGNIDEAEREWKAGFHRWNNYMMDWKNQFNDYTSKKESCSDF
Structure (SMILES),IC50 [1],IC50 [2],IC50 [3],IC50 [4]
"COc1cc(/C=C2\CC(C)c3ccccc3C2=O)c(Br)c(OC)c1OC (stereo not given) [2-(2-Bromo-3,4,5-trimethoxy-benzylidene)-4-methyl-tetralone (3f)]",0.045 µM,12.5 µM,0.92 µM,0.88 µM
"COc1cc(/C=C2\CCc3ccc(Br)cc3C2=O)c(Br)c(OC)c1OC [(2E)-7-bromo-2-[(2-bromo-3,4,5-trimethoxyphenyl)methylidene]-1,2,3,4-tetrahydronaphthalen-1-one (3aa)]",> 100 µM,> 100 µM,> 100 µM,44.6 µM
"COc1cc2c(cc1OC)C(=O)/C(=C/c1cc(OC)c(OC)c(OC)c1Br)CC2 [(2E)-2-[(2-bromo-3,4,5-trimethoxyphenyl)methylidene]-6,7-dimethoxy-1,2,3,4-tetrahydronaphthalen-1-one (3u)]",4.5 µM,> 100 µM,> 100 µM,2.9 µM
"COc1ccc(OC)c2c1CC/C(=C\c1ccc(OC)c(OC)c1Cl)C2=O [(2E)-2-[(2-chloro-3,4-dimethoxyphenyl)methylidene]-5,8-dimethoxy-1,2,3,4-tetrahydronaphthalen-1-one (3w)]",2.4 µM,24.7 µM,> 100 µM,> 100 µM
"COc1cccc2c1CC/C(=C\c1ccc(OC)c(OC)c1Cl)C2=O [(2E)-2-[(2-chloro-3,4-dimethoxyphenyl)methylidene]-5-methoxy-1,2,3,4-tetrahydronaphthalen-1-one (3q)]",81.2 µM,> 100 µM,> 100 µM,63.7 µM
"COc1cc(/C=C2\CCc3ccc([N+](=O)[O-])cc3C2=O)c(Br)c(OC)c1OC [2-(2-Bromo-3,4,5-trimethoxy-benzylidene)-7-nitro-tetralone (3ag)]",0.57 µM,6.2 µM,0.99 µM,0.91 µM
"COc1cc(/C=C2\CCc3ccccc3C2=O)c(Br)c(OC)c1OC [(2E)-2-[(2-bromo-3,4,5-trimethoxyphenyl)methylidene]-1,2,3,4-tetrahydronaphthalen-1-one (3c)]",12.4 µM,> 100 µM,27.3 µM,5.6 µM
"COc1ccc(/C=C2\CCc3ccc(Cl)cc3C2=O)c(Cl)c1OC [(2E)-7-chloro-2-[(2-chloro-3,4-dimethoxyphenyl)methylidene]-1,2,3,4-tetrahydronaphthalen-1-one (3k)]",> 100 µM,56.7 µM,> 100 µM,> 100 µM
"COc1ccc(OC)c2c1CC/C(=C\c1cc(OC)c(OC)c(OC)c1Br)C2=O [2-(2-Bromo-3,4,5-trimethoxy-benzylidene)-5,8-dimethoxy-tetralone (3x)]",0.27 µM,9.8 µM,> 100 µM,> 100 µM
"COc1ccc(/C=C2\CCc3ccc(Br)cc3C2=O)c(Cl)c1OC [(2E)-7-bromo-2-[(2-chloro-3,4-dimethoxyphenyl)methylidene]-1,2,3,4-tetrahydronaphthalen-1-one (3z)]",> 100 µM,> 100 µM,> 100 µM,56.4 µM
"COc1cccc2c1CC/C(=C\c1cc(OC)c(OC)c(OC)c1Br)C2=O [(2E)-2-[(2-bromo-3,4,5-trimethoxyphenyl)methylidene]-5-methoxy-1,2,3,4-tetrahydronaphthalen-1-one (3r)]",67.2 µM,92.5 µM,> 100 µM,56 µM
"COc1ccc(/C=C2\CCc3ccc([N+](=O)[O-])cc3C2=O)c(Cl)c1OC [2-(2-Chloro-3,4-dimethoxy-benzylidene)-7-nitro-tetralone (3af)]",2.92 µM,17.5 µM,1.24 µM,2.9 µM
"COc1ccc2c(c1)CC/C(=C\c1cc(OC)c(OC)c(OC)c1Br)C2=O [2-(2-Bromo-3,4,5-trimethoxy-benzylidene)-6-methoxy-tetralone (3o)]",1.2 µM,17.5 µM,32.2 µM,12.4 µM
"COc1ccc(/C=C2\CCc3c(O)cccc3C2=O)c(Cl)c1OC [(2E)-2-[(2-chloro-3,4-dimethoxyphenyl)methylidene]-5-hydroxy-1,2,3,4-tetrahydronaphthalen-1-one (3h)]",> 100 µM,> 100 µM,> 100 µM,48.9 µM
"COc1cc(/C=C2\CCc3ccc(F)cc3C2=O)c(Br)c(OC)c1OC [(2E)-2-[(2-bromo-3,4,5-trimethoxyphenyl)methylidene]-7-fluoro-1,2,3,4-tetrahydronaphthalen-1-one (3ad)]",> 100 µM,89.4 µM,10.9 µM,1.2 µM
"COc1cc(/C=C2\CCc3c(O)cccc3C2=O)c(Br)c(OC)c1OC [(2E)-2-[(2-bromo-3,4,5-trimethoxyphenyl)methylidene]-5-hydroxy-1,2,3,4-tetrahydronaphthalen-1-one (3i)]",> 100 µM,76.9 µM,> 100 µM,37.2 µM
"COc1cccc(/C=C2\CC(C)c3ccccc3C2=O)c1Cl (stereo not given) [(2E)-2-[(2-chloro-3-methoxyphenyl)methylidene]-4-methyl-1,2,3,4-tetrahydronaphthalen-1-one (3d)]",1.9 µM,49.9 µM,10.2 µM,3.2 µM
"COc1ccc(/C=C2\CCc3ccc(F)cc3C2=O)c(Cl)c1OC [(2E)-2-[(2-chloro-3,4-dimethoxyphenyl)methylidene]-7-fluoro-1,2,3,4-tetrahydronaphthalen-1-one (3ac)]",> 100 µM,> 100 µM,17.2 µM,2.9 µM
"COc1cc2c(cc1OC)C(=O)/C(=C/c1ccc(OC)c(OC)c1Cl)CC2 [(2E)-2-[(2-chloro-3,4-dimethoxyphenyl)methylidene]-6,7-dimethoxy-1,2,3,4-tetrahydronaphthalen-1-one (3t)]",27.2 µM,> 100 µM,> 100 µM,5.4 µM
"COc1cccc(/C=C2\CCc3ccc(Cl)cc3C2=O)c1Cl [(2E)-7-chloro-2-[(2-chloro-3-methoxyphenyl)methylidene]-1,2,3,4-tetrahydronaphthalen-1-one (3j)]",> 100 µM,> 100 µM,> 100 µM,> 100 µM
"COc1cccc(/C=C2\CCc3c(OC)cccc3C2=O)c1Cl [(2E)-2-[(2-chloro-3-methoxyphenyl)methylidene]-5-methoxy-1,2,3,4-tetrahydronaphthalen-1-one (3p)]",89.5 µM,> 100 µM,> 100 µM,78.9 µM
"COc1ccc2c(c1)CC/C(=C\c1cccc(OC)c1Cl)C2=O [(2E)-2-[(2-chloro-3-methoxyphenyl)methylidene]-6-methoxy-1,2,3,4-tetrahydronaphthalen-1-one (3m)]",43.9 µM,> 100 µM,> 100 µM,> 100 µM
"COc1cc2c(cc1OC)C(=O)/C(=C/c1cccc(OC)c1Cl)CC2 [(2E)-2-[(2-chloro-3-methoxyphenyl)methylidene]-6,7-dimethoxy-1,2,3,4-tetrahydronaphthalen-1-one (3s)]",29.5 µM,> 100 µM,> 100 µM,7.2 µM
"COc1cccc(/C=C2\CCc3ccc([N+](=O)[O-])cc3C2=O)c1Cl [(2E)-2-[(2-chloro-3-methoxyphenyl)methylidene]-7-nitro-1,2,3,4-tetrahydronaphthalen-1-one (3ae)]",9.14 µM,27.9 µM,7.23 µM,6.8 µM
"COc1cc(/C=C2\CCc3ccc(Cl)cc3C2=O)c(Br)c(OC)c1OC [(2E)-2-[(2-bromo-3,4,5-trimethoxyphenyl)methylidene]-7-chloro-1,2,3,4-tetrahydronaphthalen-1-one (3l)]",> 100 µM,48.9 µM,> 100 µM,> 100 µM
